# Measurements from the supplement of paper PMC10307832.
# Compound: C[C@H]([C@@H](C(=O)N)NC(=O)[C@@H]1CSSC[C@@H](C(=O)N[C@H](C(=O)N[C@@H](C(=O)N[C@H](C(=O)N1)CCCCN)CC2=CNC3=CC=CC=C32)CC4=CC=C(C=C4)O)NC(=O)[C@@H](CC5=CC=CC=C5)N)O [CAP-232]
# Experiment: relative viability (nuclei count vs DMSO), 5 days (fraction); higher = more cells survive
# Outline: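 In 1536-well plates, lung cancer cell lines rested overnight at 37 °C before five library-drug doses (not always all listed), √10 apart, were pinned onto vehicle-anchored plates. Nuclei were counted with MetaXpress from 4× Hoechst images taken after 5 days without medium change. Viability compares treated-well with vehicle-well nuclei as a median over plates, and plates needed control CV below 25% plus at least one doubling to pass.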
Cell Line,relative viability (0.4 µM),relative viability (1.265 µM),relative viability (4 µM),relative viability (12.65 µM)
201T,1.07,0.952,0.996,1.02
A549,0.999,0.895,1.14,0.597
A-427,1.01,0.953,0.931,0.86
ABC-1,0.968,0.789,0.957,0.603
BEN,1.03,1.05,0.989,0.922
CAL-12T,0.917,0.992,0.995,0.97
COR-L23,1.15,1.05,1.09,0.745
COR-L 105,1.05,0.816,0.992,0.573
ChaGo-K-1,1.1,0.99,1.05,1.04
EKVX,1.07,0.968,1.04,0.885
EMC-BAC-2,1.19,0.941,0.995,0.866
EPLC-272H,0.998,0.909,1.05,0.915
H3255,0.976,0.946,1.01,0.769
HARA,1.12,0.984,1.03,0.902
HCC-15,1.15,1.01,1.14,0.874
HCC-44,1.11,0.988,0.963,0.978
HCC-78,1.16,0.947,1.14,0.992
HCC-366,0.988,0.964,1.04,1.09
HCC-827,1.07,1.05,1.06,0.997
HOP-62,0.998,0.957,1.1,0.992
IA-LM,1.02,0.911,1.07,0.508
LC-2-ad,1.17,0.95,1.07,1.03
LCLC-97TM1,1.02,0.943,0.986,0.965
LCLC-103H,1.13,0.984,1.08,0.967
LK-2,1.08,0.957,1.1,0.976
LOU-NH91,1.01,0.908,0.934,0.686

Cell Line,relative viability (0.4 µM),relative viability (1.265 µM),relative viability (4 µM),relative viability (12.65 µM)
LU99A,0.969,0.919,0.986,0.984
LXF-289,1.04,1.02,1.06,0.993
NCI-H23,1.09,0.853,0.949,0.931
NCI-H322M,1.13,0.86,0.896,1.16
NCI-H358,0.979,0.918,0.927,0.81
NCI-H441,1.07,0.969,1.07,0.921
NCI-H460,1.04,1.01,1.09,0.777
NCI-H520,1.09,1.01,1.07,0.928
NCI-H522,0.967,0.982,1.01,0.916
NCI-H596,1.12,0.934,0.912,0.976
NCI-H647,1.11,0.808,1.17,0.768
NCI-H650,1.03,0.979,1.02,0.91
NCI-H661,0.948,1.04,1.04,0.984
NCI-H727,0.746,0.938,0.955,0.913
NCI-H838,1.03,0.943,1.05,0.757
NCI-H1355,1.09,0.987,1.13,0.95
NCI-H1395,1.05,0.846,0.995,0.925
NCI-H1437,0.996,1.01,1.03,0.895
NCI-H1563,0.987,0.927,0.95,0.657
NCI-H1650,0.986,0.849,0.932,0.27
NCI-H1651,1.04,0.954,1.01,0.773
NCI-H1666,0.927,0.913,1.02,0.871
NCI-H1703,0.854,0.917,0.961,0.764
NCI-H1734,0.97,0.981,1.05,0.936
NCI-H1755,1.04,0.964,1.1,0.918
NCI-H1792,1.44,0.775,0.878,0.777

Cell Line,relative viability (0.4 µM),relative viability (1.265 µM),relative viability (4 µM),relative viability (12.65 µM)
NCI-H1793,1.01,0.911,0.869,0.917
NCI-H1915,1.09,0.948,1.08,1.07
NCI-H1944,0.921,0.972,1.03,0.969
NCI-H1975,1.11,0.86,1.02,0.72
NCI-H1993,0.954,0.934,1.09,0.945
NCI-H2009,1.06,0.998,1,0.932
NCI-H2023,0.998,0.883,1.07,0.329
NCI-H2085,1.03,1.03,0.997,0.945
NCI-H2087,1.02,0.936,1.08,0.788
NCI-H2126,1.05,0.985,1.1,0.991
NCI-H2170,0.986,0.971,1.16,1.02
NCI-H2228,1.23,0.976,1.05,0.829
NCI-H2342,0.952,0.997,1.08,0.977
NCI-H2347,1.08,1.04,1.04,0.948
NCI-H2405,1.01,0.972,1.05,0.786
NCI-H3122,1,1,0.984,0.957
PC-3 [JPC-3],1.09,1.05,1.07,0.955
PC-14,1.12,0.971,1.04,0.755
RERF-LC-KJ,1.07,1,0.99,0.935
SK-LU-1,1.09,1.07,1.12,0.9
SK-MES-1,1.02,1.06,1.01,0.904
SW 900,0.962,0.881,0.953,0.845
SW 1573,0.909,0.928,1.06,0.495
UMC-11,0.917,0.914,1.08,0.95
